Data from patent US20100179061A1, “PLANT GROWTH PROMOTER” (Nisshin Pharma Inc., priority 2007, published 2010).

Columns and labels:
[1] = test system: radish sprouts; experiment: Growth promotion effect test I of water-solubilized coenzyme Q10; format: in vivo; conditions: high concentration of 100 ppm of coenzyme Q10
Experimental: A Kimtowel was matted on a petri dish, 100 mL of a growth-promoting agent in Example 1 was poured thereon, and 20 seeds of radish sprouts (produced by Noguchi Seed and Seedling Laboratory) were placed thereon. This petri dish was stored at room temperature under a light shielding condition. After 7 days, the sprouts were collected, and a total length and a root length of the radish sprouts were measured. Data as the control was a result obtained by measuring the total length of the plant in the same way as described above, except that city water was used in place of the growth-promoting agent (data as the control described below was a result obtained by the same way described above). Numerical values in the Table represent a mean of measured values unless otherwise explained (Numerical values in the Table described below represent the same described above). A growth rate was calculated based on the following formula (Numerical A growth rate was calculated by the same way described above): [(A−B)/B]×100, wherein A denotes a measured value of the total length of the plant cultivated in the presence of the growth-promoting agent containing coenzyme Q10, and B denotes a measured value of the total length of the plant as the control plant.

[2] = test system: Burdock; experiment: Growth promotion effect test IV of water-solubilized coenzyme Q10; format: in vivo; conditions: growth-promoting agent in Example 3 (CoQ10 1 ppm), after 7 days
Experimental: (§1) A required number of petri dishes were prepared, the Kimtowel was matted on the each petri dish, 100 mL of the growth-promoting agent in Example 3 was poured thereon, and 40 seeds (produced by Noguchi Seed and Seedling Laboratory) of the plants described in Table 4 were placed thereon. These petri dishes were stored at room temperature under the light shielding condition. After 7 days, sprouts were collected, and the total length of the plants described in Table 4 was measured. The growth rate was calculated based on the following formula (A growth rate was calculated by the same way described above): [(A−B)/B]×100, wherein A denotes a measured value of the total length of the plant cultivated in the presence of the growth-promoting agent containing CoQ10, and B denotes the measured value of the total length of the plant as the control.

[3] = test system: Crown daisy; experiment: as above; format: in vivo; conditions: growth-promoting agent in Example 3 (CoQ10 1 ppm), after 7 days
Experimental: as §1

[4] = test system: Komatsuna; experiment: as above; format: in vivo; conditions: growth-promoting agent in Example 3 (CoQ10 1 ppm), after 7 days
Experimental: as §1

[5] = test system: Spinach; experiment: as above; format: in vivo; conditions: growth-promoting agent in Example 3 (CoQ10 1 ppm), after 7 days
Experimental: as §1

[6] = test system: Buckwheat; experiment: Growth promotion effect test V of water-solubilized coenzyme Q10; format: in vivo; conditions: same way as test IV (CoQ10 1 ppm)
Experimental: (§2) A required number of petri dishes were prepared, the Kimtowel was matted on the each petri dish, 100 mL of the growth-promoting agent in Example 3 was poured thereon, and 40 seeds (produced by Noguchi Seed and Seedling Laboratory) of the plants described in Table 4 were placed thereon. These petri dishes were stored at room temperature under the light shielding condition. After 7 days, sprouts were collected, and the total length of the plants described in Table 4 was measured. The required number of petri dishes was prepared, and the growth-promoting effect on seeds (produced by Noguchi Seed and Seedling Laboratory) of the plants described in Table 5 was examined in the same way as in Growth promotion effect test IV of water-solubilized coenzyme Q10. 30 seeds of wheat were examined. Buckwheat and snow peas were stored at room temperature under the light shielding condition, and collected after 8 days. Spinach was stored at room temperature under the light shielding condition, and collected after 9 days.

[7] = test system: Chives; experiment: as above; format: in vivo; conditions: same way as test IV (CoQ10 1 ppm)
Experimental: as §2

[8] = test system: Green onions; experiment: as above; format: in vivo; conditions: same way as test IV (CoQ10 1 ppm)
Experimental: as §2

[9] = test system: Snow peas; experiment: as above; format: in vivo; conditions: same way as test IV (CoQ10 1 ppm)
Experimental: as §2

[10] = test system: Wheat; experiment: as above; format: in vivo; conditions: 30 seeds, same way as test IV (CoQ10 1 ppm)
Experimental: as §2

[11] = Precipitation of coenzyme Q10 in the growth-promoting agent; format: physicochemical; conditions: growth-promoting agent diluted with city water, up to 100 ppm
Experimental: First, 1.25 g of water-solubilized coenzyme Q10 (Aqua Q10-P40 containing coenzyme Q10 in an amount of 40% by mass manufactured by Nisshin Pharma Inc.) was diluted using 500 ml of city water to prepare a solution of 1000 ppm of coenzyme Q10. This was diluted with city water to prepare a growth-promoting agent in a solubilized form containing coenzyme Q10 (sometimes described as CoQ10) in the amount of 10 ppm or 100 ppm.

[12] = room temperature, light shielding
[13] = room temperature, light shielding, collected after 8 days

With `COC1=C(OC)C(=O)C(C/C=C(\C)CC/C=C(\C)CC/C=C(\C)CC/C=C(\C)CC/C=C(\C)CC/C=C(\C)CC/C=C(\C)CC/C=C(\C)CC/C=C(\C)CCC=C(C)C)=C(C)C1=O` [CoQ10, coenzyme Q10] the concentration disorder [1] was “without causing a concentration disorder”, the Growth increase rate ([2]; versus control) was 12.7% and the “Measured value (total length)” value [2, 12] was 4.96 cm. For the same compound, the Growth increase rate ([3]; versus control) was 17.9%, the “Measured value (total length)” value [3, 12] was 5.46 cm and the Growth increase rate ([4]; versus control) was 15.6%. The “Measured value (total length)” value [4, 12] was 8.87 cm, the Growth increase rate ([5]; versus control) was 10.5% and the “Measured value (total length)” value [5, 12] was 4.22 cm. For the same compound, the Growth increase rate ([6]; after 8 days, versus control) was 12.8%, the “Measured value (total length)” value [6, 13] was 25.01 cm and the “Measured value (total length)” value [7, 12] was 2.90 cm. The Growth increase rate ([7]; versus control) was 22.4%, the “Measured value (total length)” value [8, 12] was 3.02 cm and the Growth increase rate ([8]; versus control) was 19.4%. The Growth increase rate ([9]; after 8 days, versus control) was 17.1%, the “Measured value (total length)” value [9, 13] was 29.31 cm and the “Measured value (total length)” value [10, 12] was 14.16 cm. For the same compound, the Growth increase rate ([10]; versus control) was 44.6% and the “precipitation of coenzyme Q10” value [11] was “not precipitated”.
